From patent EP0187355A1, “Process for preparing beta-lactam antibiotics” (E.R. Squibb & Sons, Inc., priority 1981, dated 1982)
Where a name gives a salt, the structure may show the parent alone. Read-outs that look alike come from different tables or passages of the source.

Key:
Assay in all cases: MIC, agar dilution
Type in all cases: cell-based
[1] = system: Shigella sonnei, 8449; conditions: K-10 agar, 10^4 CFU, 37°C; for MIC: Shigella sonnei, 8449, 18 h; for M.I.C.: 18 hours
Protocol: (§1) The following methodology is used to determine the minimum inhibitory concentration (hereinafter referred to as MIC) of the […] of this invention.
(§2) The test organisms are grown in approximately 15-20 ml of Antibiotic Assay broth (Difco) by inoculating (in tubes) the broth with a loopful of the organism from a BHI (Difco) agar slant. The inoculated tubes are incubated at 37°C for 18 to 20 hours. These cultures are assumed to contain 10^9 colony forming units (hereinafter CFU) per milliliter. The cultures are diluted 1:100 to give a final inoculum level of 10^4 CFU; dilutions are made with K-10 broth^*.
(§3) The compounds are dissolved in the appropriate diluent at a concentration of 1000 µg/ml. Twofold dilutions are made in K-10 broth resulting in a range from 1000 µg/ml to 0.5 µg/ml. 1.5 ml of each dilution is placed into individual square petri dishes to which 13.5 ml of K-10 agar^** is added. The final drug concentration in the agar ranges from 100 µg/ml to 0.05 µg/ml. Organism growth control plates containing agar only are prepared and inoculated before and after the test plates. The organisms are applied to the agar surface of each plate with the Denley Multipoint Inoculator (which delivers approximately 0.001 ml of each organism) resulting in a final inoculum level of 10^4 CFU on the agar surface.
(§4) The plates are incubated at 37 °C for 18 hours and the MIC's are determined. The MIC is the lowest concentration of compound inhibiting growth of the organism.
(§5) The tables that follow are tabulated results obtained when the B-lactams of this invention are tested against various organisms. The number following each organism refers to the number of the organism in the collection of E. R. Squibb & Sons,.Inc., Princeton, New Jersey. […] The symbol "N.T." means not tested.

[2] = system: Staphylococcus aureus, 1276
Protocol: as §1, §2, §3, §4, §5

[3] = system: Serratia marcescens, 9783; conditions: K-10 agar, 10^4 CFU, 37°C; for MIC: Serratia marcescens, 9783, 18 h
Protocol: as §1, §2, §3, §4, §5

[4] = system: Proteus mirabilis, 3855; conditions: K-10 agar, 10^4 CFU, 37°C; for MIC: Proteus mirabilis, 3855, 18 h
Protocol: as §1, §2, §3, §4, §5

[5] = system: Escherichia coli, 8294; conditions: K-10 agar, 10^4 CFU, 37°C; for MIC: Escherichia coli, 8294, 18 h
Protocol: as §1, §2, §3, §4, §5

[6] = system: Citrobacter freundii, 9518; conditions: K-10 agar, 10^4 CFU, 37°C
Protocol: as §1, §2, §3, §4, §5

[7] = system: Proteus vulgaris, 9416; conditions: K-10 agar, 10^4 CFU, 37°C
Protocol: as §1, §2, §3, §4, §5

[8] = system: Escherichia coli, 10896; conditions: K-10 agar, 10^4 CFU, 37°C, 18 hours
Protocol: as §1, §2, §3, §4, §5

[9] = system: Proteus rettgeri, 8479; conditions: K-10 agar, 10^4 CFU, 37°C
Protocol: as §1, §2, §3, §4, §5

[10] = system: Klebsiella pneumoniae, 9527; conditions: K-10 agar, 10^4 CFU, 37°C; for MIC: Klebsiella pneumoniae, 9527, 18 h
Protocol: as §1, §2, §3, §4, §5

[11] = system: Pseudomonas aeruginosa, 8329; conditions: K-10 agar, 10^4 CFU, 37°C
Protocol: as §1, §2, §3, §4, §5

[12] = system: Escherichia coli, 10909; conditions: K-10 agar, 10^4 CFU, 37°C, 18 hours
Protocol: as §1, §2, §3, §4, §5

[13] = system: Klebsiella aerogenes, 10440; conditions: K-10 agar, 10^4 CFU, 37°C
Protocol: as §1, §2, §3, §4, §5

[14] = system: Staphylococcus aureus, 2399; conditions: for MIC: Staphylococcus aureus, 2399, 18 h
Protocol: as §1, §2, §3, §4, §5

[15] = system: Escherichia coli, 10857; conditions: K-10 agar, 10^4 CFU, 37°C; for MIC: Escherichia coli, 10857, 18 h
Protocol: as §1, §2, §3, §4, §5

[16] = system: Salmonella typhosa, 1195; conditions: K-10 agar, 10^4 CFU, 37°C; for MIC: Salmonella enterica, TYPHOSA, 18 h
Protocol: as §1, §2, §3, §4, §5

[17] = system: Staphylococcus aureus, 10165
Protocol: as §1, §2, §3, §4, §5

[18] = system: Pseudomonas aeruginosa, 9545; conditions: K-10 agar, 10^4 CFU, 37°C; for MIC: Pseudomonas aeruginosa, 9545, 18 h
Protocol: as §1, §2, §3, §4, §5

[19] = system: Acinetobacter calcoaceticus, 8333; conditions: K-10 agar, 10^4 CFU, 37°C; for MIC: Acinetobacter calcoaceticus, 8333, 18 h
Protocol: as §1, §2, §3, §4, §5

[20] = system: Enterobacter aerogenes, 10078; conditions: for MIC: Klebsiella aerogenes, 10078, 18 h
Protocol: as §1, §2, §3, §4, §5

[21] = system: Staphylococcus aureus, 2400
Protocol: as §1, §2, §3, §4, §5

[22] = system: Streptococcus faecalis, 9011
Protocol: as §1, §2, §3, §4, §5

[23] = system: Streptococcus agalactiae, 9287; conditions: K-10 agar, 10^4 CFU, 37°C; for MIC: Streptococcus agalactiae, 9287, 18 h
Protocol: as §1, §2, §3
(§6) The MIC is the lowest concentration of compound inhibiting growth of the organism.
(§7) The number following each organism refers to the number of the organism in the collection of E. R. Squibb & Sons,.Inc., Princeton, New Jersey. […] The symbol "N.T." means not tested.

[24] = system: Micrococcus luteus, 2495; conditions: Micrococcus luteus, 2495, 18 h, K-10 agar, 10^4 CFU, 37°C
Protocol: as §1, §2, §3, §6, §7

[25] = system: Enterobacter cloacae, 8236; conditions: Enterobacter cloacae, 8236, 18 h, K-10 agar, 10^4 CFU, 37°C
Protocol: as §1, §2, §3, §6, §7

[26] = Staphylococcus aureus, 1276, 18 h
[27] = Citrobacter freundii, 9518, 18 h
[28] = Providencia rettgeri, 8479, 18 h
[29] = Pseudomonas aeruginosa, 8329, 18 h
[30] = Klebsiella aerogenes, 10440, 18 h
[31] = Staphylococcus aureus, 10165, 18 h
[32] = Staphylococcus aureus, 2400, 18 h
[33] = Enterococcus faecalis, 9011, 18 h

## CC1C(NC(=O)C(=NOC(C)(C)C(=O)O)c2csc(N)n2)C(=O)N1S(=O)(=O)O (stereo not drawn) [Example 6, [3S-[3α (Z) ,4β]]3-[[(2-Amino-4-thiazolyl) [[1-carboxy-1-methylethoxy)imino]acetyl)amino)-4-methyl-2-oxo-1-azetidinesulfonic acid, dipotassium salt]
[1]
  MIC: 0.2 µg/mL
[2]; [26]
  MIC: > 100 µg/mL
[3]
  MIC: 0.2 µg/mL
[4]
  MIC: < 0.05 µg/mL
[5]
  MIC: 0.4 µg/mL
[6]; [27]
  MIC: 0.4 µg/mL
[7]; Proteus vulgaris, 9416, 18 h
  MIC: < 0.05 µg/mL
[8]
  MIC: 0.2 µg/mL
[9]; [28]
  MIC: < 0.05 µg/mL
[10]
  MIC: < 0.05 µg/mL
[11]; [29]
  MIC: 3.1 µg/mL
[12]
  MIC: < 0.05 µg/mL
[13]; [30]
  MIC: 0.4 µg/mL
[14]
  MIC: > 100 µg/mL
[15]
  MIC: < 0.05 µg/mL
[16]
  MIC: < 0.05 µg/mL
[17]; [31]
  MIC: > 100 µg/mL
[18]
  MIC: 0.8 µg/mL
[19]
  MIC: 100 µg/mL
[20]
  MIC: 0.4 µg/mL
[21]; [32]
  MIC: > 100 µg/mL
[22]; [33]
  MIC: > 100 µg/mL
[23]
  MIC: 50 µg/mL

## CC1C(NC(=O)C(=NO)c2csc(N)n2)C(=O)N1S(=O)(=O)O (stereo not drawn) [Example 13, [3S-[3α(Z),4β]]-3-[[(2-amino-4-thiazolyl)-(hydroxyimino)acetyl]amino]-4-methyl-2-oxo-1-azetidinesulfonic acid, potassium salt]
[1]
  MIC: 1.6 µg/mL
[2]; Staphylococcus aureus, 1276, K-10 agar, 10^4 CFU, 37°C, 18 hours, read-out: M.I.C.
  MIC: 25 µg/mL
[3]; read-out: M.I.C.
  MIC: 0.8 µg/mL
[4]; read-out: M.I.C.
  MIC: 1.6 µg/mL
[5]
  MIC: 1.6 µg/mL
[6]; 18 hours, read-out: M.I.C.
  MIC: 0.8 µg/mL
[7]; 18 hours, read-out: M.I.C.
  MIC: 0.8 µg/mL
[8]
  MIC: 1.6 µg/mL
[9]; Providencia rettgeri, 18 hours, read-out: M.I.C.
  MIC: 0.1 µg/mL
[10]; read-out: M.I.C.
  MIC: 1.6 µg/mL
[11]; 18 hours, read-out: M.I.C.
  MIC: > 100 µg/mL
[12]
  MIC: 0.8 µg/mL
[13]; 18 hours, read-out: M.I.C.
  MIC: 1.6 µg/mL
[15]
  MIC: 1.6 µg/mL
[16]
  MIC: 0.8 µg/mL
[17]; Staphylococcus aureus, 10165, K-10 agar, 10^4 CFU, 37°C, 18 hours, read-out: M.I.C.
  MIC: 25 µg/mL
[18]; read-out: M.I.C.
  MIC: 6.3 µg/mL
[19]; read-out: M.I.C.
  MIC: 12.5 µg/mL
[20]; Enterobacter aerogenes, 10078, K-10 agar, 10^4 CFU, 37°C, 18 hours, read-out: M.I.C.
  MIC: 3.1 µg/mL
[21]; Staphylococcus aureus, 2400, K-10 agar, 10^4 CFU, 37°C, 18 hours, read-out: M.I.C.
  MIC: 12.5 µg/mL
[22]; Enterococcus faecalis, Streptococcus faecalis, 9011, K-10 agar, 10^4 CFU, 37°C, 18 hours, read-out: M.I.C.
  MIC: > 100 µg/mL
[23]; read-out: M.I.C.
  MIC: 25 µg/mL
[24]; read-out: M.I.C.
  MIC: 3.1 µg/mL
[25]
  MIC: 1.6 µg/mL

## C[C@@H]1[C@H](NC(=O)/C(=N\OC(C)(C)C(=O)O)c2csc(N)n2)C(=O)N1S(=O)(=O)O [Example 16, [3α(Z),4α]-3-[[(2-Amino-4-thiazolyl) [(1-carboxy-1-methylethoxy)imino]acetyl]amino]-4-methyl-2-oxo-l-azetidinesulfonic acid, potassium salt (1:2)]
[1]
  M.I.C.: 0.4 µg/mL
[2]; [26]
  MIC: > 100 µg/mL
[3]
  MIC: 0.4 µg/mL
[4]
  MIC: < 0.05 µg/mL
[5]
  MIC: 0.4 µg/mL
[6]; [27]
  MIC: 0.8 µg/mL
[7]; Proteus vulgaris, 9416, 18 h
  MIC: < 0.05 µg/mL
[8]
  MIC: 0.2 µg/mL
[9]; [28]
  MIC: < 0.05 µg/mL
[10]
  MIC: 0.1 µg/mL
[11]; [29]
  MIC: 3.1 µg/mL
[12]
  MIC: < 0.05 µg/mL
[13]; [30]
  MIC: 0.8 µg/mL
[14]
  MIC: > 100 µg/mL
[15]
  MIC: 0.2 µg/mL
[16]
  MIC: < 0.05 µg/mL
[17]; [31]
  MIC: > 100 µg/mL
[18]
  MIC: 0.8 µg/mL
[19]
  MIC: 50 µg/mL
[20]
  MIC: 0.8 µg/mL
[21]; [32]
  MIC: > 100 µg/mL
[22]; [33]
  MIC: > 100 µg/mL
[23]; 18 hours
  M.I.C.: 50 µg/mL
[24]
  MIC: 25 µg/mL

## C[C@@H]1[C@H](NC(=O)/C(=N\OC(C)(C)C(=O)O)c2csc(N)n2)C(=O)N1S(=O)(=O)O [Example 23, [3S-(3α(Z),4a]]-3-[[(2-Amino-4-thiazolyl) [(1-carboxy-1-methylethoxy)imino)acetyl]amino]-4-methyl-2-oxo-l-azetidinesulfonic acid, potassium salt (1:2)]
[1]
  M.I.C.: 0.1 µg/mL
[2]; Staphylococcus aureus, 1276, K-10 agar, 10^4 CFU, 37°C, 18 hours
  M.I.C.: - (A dash (-) in the tables means that the compound tested did not show activity against the particular organism at 100 µg/ml)
[3]; 18 hours
  M.I.C.: 0.2 µg/mL
[4]; 18 hours
  M.I.C.: 0.05 µg/mL
[5]; 18 hours
  M.I.C.: 0.2 µg/mL
[6]; 18 hours
  M.I.C.: 0.4 µg/mL
[7]; 18 hours
  M.I.C.: 0.05 µg/mL
[8]
  M.I.C.: 0.2 µg/mL
[9]; 18 hours
  M.I.C.: 0.05 µg/mL
[10]; 18 hours
  M.I.C.: 0.05 µg/mL
[11]; 18 hours
  M.I.C.: 1.6 µg/mL
[13]; 18 hours
  M.I.C.: 0.4 µg/mL
[14]; Staphylococcus aureus, 2399, K-10 agar, 10^4 CFU, 37°C, 18 hours
  M.I.C.: - (A dash (-) in the tables means that the compound tested did not show activity against the particular organism at 100 µg/ml)
[15]; 18 hours
  M.I.C.: 0.1 µg/mL
[16]; 18 hours
  M.I.C.: 0.05 µg/mL
[17]; Staphylococcus aureus, 10165, K-10 agar, 10^4 CFU, 37°C, 18 hours
  M.I.C.: - (A dash (-) in the tables means that the compound tested did not show activity against the particular organism at 100 µg/ml)
[18]; 18 hours
  M.I.C.: 0.4 µg/mL
[19]; 18 hours
  M.I.C.: 25 µg/mL
[20]; Enterobacter aerogenes, 10078, K-10 agar, 10^4 CFU, 37°C, 18 hours
  M.I.C.: 0.8 µg/mL
[21]; Staphylococcus aureus, 2400, K-10 agar, 10^4 CFU, 37°C, 18 hours
  M.I.C.: - (A dash (-) in the tables means that the compound tested did not show activity against the particular organism at 100 µg/ml)
[22]; Streptococcus faecalis, 9011, K-10 agar, 10^4 CFU, 37°C, 18 hours
  M.I.C.: - (A dash (-) in the tables means that the compound tested did not show activity against the particular organism at 100 µg/ml)
